The text below walks through data of paper PMC9681730, “DeepPROTACs is a deep learning-based targeted degradation predictor for PROTACs” (Nature Communications, 2022).

For experiment [1], the target named is T1, ERα-LBD (estrogen receptor, ER) (Homo sapiens, UniProt P03372).
T1 construct: gene ESR1; ERα-LBD (aa 298–554)
T1 sequence (P03372 298-554): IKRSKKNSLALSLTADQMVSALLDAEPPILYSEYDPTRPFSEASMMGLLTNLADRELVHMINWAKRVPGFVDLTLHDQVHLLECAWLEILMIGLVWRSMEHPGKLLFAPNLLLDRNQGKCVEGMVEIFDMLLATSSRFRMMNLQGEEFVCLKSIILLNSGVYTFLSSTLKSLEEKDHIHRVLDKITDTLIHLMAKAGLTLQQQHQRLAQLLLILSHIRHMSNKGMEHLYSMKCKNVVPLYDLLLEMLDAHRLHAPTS
As to the kind of experiment: ITC (reverse titration, purified ERα-LBD). Type of experiment: binding.

Experiment [2] concerns the target T2, VHL (Homo sapiens, UniProt P40337).
T2 construct: VHL (aa 54-213) in His-tagged VCB complex with EloB (aa 1-104) and EloC (aa 1-112); with EloB and EloC (VCB complex)
In words: ITC (reverse titration, purified VCB complex). The format is binding.

T2 sequence (P40337 54-213): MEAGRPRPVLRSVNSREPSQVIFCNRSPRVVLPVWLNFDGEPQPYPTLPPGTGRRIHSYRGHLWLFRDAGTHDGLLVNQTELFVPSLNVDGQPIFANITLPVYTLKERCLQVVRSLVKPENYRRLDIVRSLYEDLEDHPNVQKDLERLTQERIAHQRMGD
T2 sequence (Q15370 1-104 partner): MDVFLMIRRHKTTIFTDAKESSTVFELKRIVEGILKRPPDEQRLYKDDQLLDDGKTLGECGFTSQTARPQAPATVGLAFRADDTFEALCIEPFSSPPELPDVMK
T2 sequence (Q15369 whole entry partner, the tested form may be a part): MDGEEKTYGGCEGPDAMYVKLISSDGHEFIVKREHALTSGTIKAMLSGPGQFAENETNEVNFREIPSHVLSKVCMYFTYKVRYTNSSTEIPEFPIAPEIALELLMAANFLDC

One may read the Kd as a measure of binding affinity in units of concentration. A higher Kd goes with lower affinity. For the compound `Cc1ncsc1-c1ccc(CNC(=O)[C@@H]2C[C@@H](O)CN2C(=O)[C@@H](NC(=O)CCCCCCCCCC(=O)NCCOc2ccc(C(=C(CCCl)c3ccccc3)c3ccc(O)cc3)cc2)C(C)(C)C)cc1` [PROTAC 8], the dissociation constant (Kd) in experiment [1] is 2.14 µM; in experiment [2], 4.37 µM.
